Measurements from patent US20160158200A1, “Combinations of Hepatitis C Virus Inhibitors” (priority 2013, published 2016).

Key:
[1] = system: HCV genotype 1a L31V variant with leucine 31 changed to valine in the NS5A protein; test: microbe, parasite or virus in culture; type: cell-based; settings: genotype 1a L31V replicon; test compound titrated with compound N47 fixed at 200 nM versus singly
[2] = system: HCV genotype 1a Y93H variant with tyrosine 93 changed to histidine in the NS5A protein; test: microbe, parasite or virus in culture; type: cell-based; settings: genotype 1a Y93H replicon; test compound titrated with compound N47 fixed at 200 nM versus singly
Experimental: Combinations can be examined for synergistic activity using a variety of putative NS5A-targeting compounds and a variety of test compounds. […] The test compound can be chosen from compounds exemplified below, which were prepared by methods known in the art, or from others disclosed in the literature.
Similarly, BMS-790052 can be tested singly and in combination with a fixed amount of compound N47 in the HCV replicon cell based assay consisting of the genotype 1a Y93H variant with tyrosine 93 changed to histidine in the NS5A protein.

CC(=O)N1CCC[C@H]1C(=O)Nc1ccc(-c2nc(-c3ccc(NC(=O)[C@@H]4C=CCN4C(=O)Cc4ccccc4)cc3)cs2)cc1
Fold-Synergistic G-1a (L31V) [1]: <10 fold
Fold-Synergistic G-1a (Y93H) [2]: <10 fold

O=C(Cc1ccccc1)N1CCC[C@H]1c1nc2cc(C#Cc3ccc4nc([C@@H]5CCCN5C(=O)Cc5ccccc5)[nH]c4c3)ccc2[nH]1
Fold-Synergistic G-1a (L31V) [1]: <10 fold
Fold-Synergistic G-1a (Y93H) [2]: <10 fold

COC(=O)N[C@H](C(=O)N1CCC[C@H]1c1nc2cc(C#Cc3ccc(-c4[nH]cnc4[C@@H]4CCCN4C(=O)[C@@H](NC(=O)OC)C(C)C)cc3)ccc2[nH]1)C(C)C
Fold-Synergistic G-1a (L31V) [1]: <10 fold
Fold-Synergistic G-1a (Y93H) [2]: >10 fold

COC(=O)N[C@H](C(=O)N1C[C@@H](C)C[C@H]1c1ncc(-c2ccc(-c3ccc(-c4cnc([C@@H]5C[C@H](C)CN5C(=O)[C@@H](NC(=O)OC)C(C)C)[nH]4)cc3)cc2)[nH]1)C(C)C
Fold-Synergistic G-1a (L31V) [1]: >10 fold
Fold-Synergistic G-1a (Y93H) [2]: >100 fold

COC(=O)N[C@H](C(=O)N1CCC[C@H]1c1nc(-c2ccc(C#Cc3ccc4[nH]c([C@@H]5CCCN5C(=O)[C@@H](NC(=O)OC)C(C)C)nc4c3)cc2)c[nH]1)C(C)C
Fold-Synergistic G-1a (L31V) [1]: >100 fold
Fold-Synergistic G-1a (Y93H) [2]: >100 fold

COC(=O)N[C@H](C(=O)N1CCC[C@H]1c1nc2cc(-c3ccc4c(ccc5[nH]c([C@@H]6CCCN6C(=O)[C@@H](NC(=O)OC)C(C)C)nc54)c3)ccc2[nH]1)C(C)C
Fold-Synergistic G-1a (L31V) [1]: >10 fold
Fold-Synergistic G-1a (Y93H) [2]: >100 fold

COC(=O)N[C@H](C(=O)N1CCC[C@H]1c1nc2c([nH]1)CCc1cc(C#Cc3ccc4[nH]c([C@@H]5CCCN5C(=O)[C@@H](NC(=O)OC)C(C)C)nc4c3)ccc1-2)C(C)C
Fold-Synergistic G-1a (L31V) [1]: >100 fold
Fold-Synergistic G-1a (Y93H) [2]: >100 fold

COC(=O)N[C@H](C(=O)N1CCC[C@H]1c1nc(-c2ccc(-c3ccc(-c4ccc5nc([C@@H]6CCCN6C(=O)[C@@H](NC(=O)OC)C(C)C)[nH]c5c4)cc3)cc2)c[nH]1)C(C)C
Fold-Synergistic G-1a (L31V) [1]: >10 fold
Fold-Synergistic G-1a (Y93H) [2]: >10 fold

CC[C@H]1CC[C@@H](c2ncc(-c3ccc(-c4ccc(-c5cnc([C@@H]6CC[C@H](CC)N6C(=O)[C@@H](NC(=O)OC)C(C)C)[nH]5)cc4)cc3)[nH]2)N1C(=O)[C@@H](NC(=O)OC)C(C)C
Fold-Synergistic G-1a (L31V) [1]: >100 fold
Fold-Synergistic G-1a (Y93H) [2]: >100 fold

COC(=O)N[C@H](C(=O)N1[C@@H]2C[C@@H]2C[C@H]1c1nc2ccc(C#CC#Cc3ccc4nc([C@@H]5C[C@H]6C[C@H]6N5C(=O)[C@@H](NC(=O)OC)C(C)C)[nH]c4c3)cc2[nH]1)C(C)C
Fold-Synergistic G-1a (L31V) [1]: >10 fold
Fold-Synergistic G-1a (Y93H) [2]: >100 fold

COC(=O)N[C@H](C(=O)N1CCC[C@H]1c1nc2cc(-c3ccc4ccc(-c5ccc6nc([C@@H]7CCCN7C(=O)[C@@H](NC(=O)OC)C(C)C)[nH]c6c5)cc4c3)ccc2[nH]1)C(C)C
Fold-Synergistic G-1a (L31V) [1]: >10 fold
Fold-Synergistic G-1a (Y93H) [2]: >10 fold

COC(=O)N[C@H](C(=O)N1CCC[C@H]1c1nc2cc(-c3ccc4cc(-c5ccc6[nH]c([C@@H]7CCCN7C(=O)[C@@H](NC(=O)OC)C(C)C)nc6c5)ccc4c3)ccc2[nH]1)C(C)C
Fold-Synergistic G-1a (L31V) [1]: >10 fold
Fold-Synergistic G-1a (Y93H) [2]: >10 fold

COC(=O)N[C@H](C(=O)N1CCCC1c1nc2cc(-c3ccc4cc(-c5ccc(-c6cnc([C@@H]7CCCN7C(=O)[C@@H](NC(=O)OC)C(C)C)[nH]6)cc5)ccc4c3)ccc2[nH]1)C(C)C (stereo partly drawn)
Fold-Synergistic G-1a (L31V) [1]: >10 fold
Fold-Synergistic G-1a (Y93H) [2]: >10 fold

COC(=O)N[C@H](C(=O)N1[C@H](c2ncc(-c3ccc(-c4ccc(-c5cnc([C@@H]6CCN(C)N6C(=O)[C@@H](NC(=O)OC)C(C)C)[nH]5)cc4)cc3)[nH]2)CCN1C)C(C)C
Fold-Synergistic G-1a (L31V) [1]: >100 fold
Fold-Synergistic G-1a (Y93H) [2]: >100 fold

COC(=O)N[C@@H](C(=O)N1CCC[C@H]1c1nc2cc(-c3ccc(-c4ccc5c(ccc6[nH]c([C@@H]7CCCN7C(=O)[C@H](NC(=O)OC)c7ccccc7)nc65)c4)cc3)ccc2[nH]1)c1ccccc1
Fold-Synergistic G-1a (L31V) [1]: <10 fold
Fold-Synergistic G-1a (Y93H) [2]: <10 fold

COC(=O)N[C@H](C(=O)N1CCC[C@H]1c1ncc(C#Cc2ccc(-c3ccc4nc([C@@H]5CCCN5C(=O)[C@@H](NC(=O)OC)C(C)C)[nH]c4c3)cc2)[nH]1)C(C)C
Fold-Synergistic G-1a (L31V) [1]: >100 fold
Fold-Synergistic G-1a (Y93H) [2]: >100 fold

COC(=O)N[C@@H](C(=O)N1CCC[C@H]1c1ncc(C#CC#Cc2cnc([C@@H]3CCCN3C(=O)[C@H](NC(=O)OC)c3ccccc3)[nH]2)[nH]1)c1ccccc1
Fold-Synergistic G-1a (L31V) [1]: <10 fold
Fold-Synergistic G-1a (Y93H) [2]: <10 fold

COC(=O)N[C@H](C(=O)N1CCC[C@H]1c1ncc(-c2ccc(C#Cc3ccc4c(ccc5[nH]c([C@@H]6CCCN6C(=O)[C@@H](NC(=O)OC)C(C)C)nc54)c3)cc2)[nH]1)C(C)C
Fold-Synergistic G-1a (L31V) [1]: <10 fold
Fold-Synergistic G-1a (Y93H) [2]: >100 fold

COC(=O)N[C@H](C(=O)N1[C@@H]2C[C@@H]2C[C@H]1c1ncc(-c2ccc(C#Cc3ccc(-c4cnc([C@@H]5C[C@H]6C[C@H]6N5C(=O)[C@@H](NC(=O)OC)C(C)C)[nH]4)cc3)cc2)[nH]1)C(C)C
Fold-Synergistic G-1a (L31V) [1]: <10 fold
Fold-Synergistic G-1a (Y93H) [2]: >10 fold

COC(=O)N[C@H](C(=O)N1[C@@H]2C[C@@H]2C[C@H]1c1nc2ccc(-c3ccc4cc(-c5ccc6nc([C@@H]7C[C@H]8C[C@H]8N7C(=O)[C@@H](NC(=O)OC)C(C)C)[nH]c6c5)ccc4c3)cc2[nH]1)C(C)C
Fold-Synergistic G-1a (L31V) [1]: >10 fold
Fold-Synergistic G-1a (Y93H) [2]: >10 fold

COC(=O)N[C@H](C(=O)N1C[C@@H]2C[C@@H]2[C@H]1c1ncc(-c2ccc(-c3ccc(-c4cnc([C@@H]5[C@H]6C[C@H]6CN5C(=O)[C@@H](NC(=O)OC)C(C)C)[nH]4)cc3)cc2)[nH]1)C(C)C
Fold-Synergistic G-1a (L31V) [1]: >100 fold
Fold-Synergistic G-1a (Y93H) [2]: >100 fold

COC(=O)N[C@H](C(=O)N1CC[C@H](C)[C@H]1c1ncc(-c2ccc(-c3ccc(-c4cnc([C@@H]5[C@@H](C)CCN5C(=O)[C@@H](NC(=O)OC)C(C)C)[nH]4)cc3)cc2)[nH]1)C(C)C
Fold-Synergistic G-1a (L31V) [1]: >100 fold
Fold-Synergistic G-1a (Y93H) [2]: >100 fold

COC(=O)N[C@H](C(=O)N1CCC[C@H]1c1nc2cc(-c3ccc4cc(-c5cnc6[nH]c([C@@H]7CCCN7C(=O)[C@@H](NC(=O)OC)C(C)C)nc6c5)ccc4c3)cnc2[nH]1)C(C)C
Fold-Synergistic G-1a (L31V) [1]: >10 fold
Fold-Synergistic G-1a (Y93H) [2]: >10 fold

COC(=O)N[C@H](C(=O)N1CCC[C@H]1c1ncc(-c2ccc(-c3ccc4cc(-c5cnc([C@@H]6CCCN6C(=O)[C@@H](NC(=O)OC)C(C)C)[nH]5)ccc4c3)cc2)[nH]1)C(C)C
Fold-Synergistic G-1a (L31V) [1]: <10 fold
Fold-Synergistic G-1a (Y93H) [2]: >10 fold
